# From patent US20250221936A1, “ENGINEERED HEMICHANNELS, ENGINEERED VESICLES, AND USES THEREOF” (VIRGINIA TECH INTELLECTUAL PROPERTIES, INC., priority 2018, published 2025)
# Where two headings read alike, the source gives them in different places.
# How the values were obtained:
# [1] = target: T1, Cx43 CT (amino acids 255 to 382) (Rattus norvegicus, UniProt P08050); assay: Surface plasmon resonance, Cx43 CT analyte; type: binding; details: biotin-peptide immobilized on streptavidin chip; analyte 0.5 to 15 μM
# T1 construct: Cx43-CT: amino acids 255 to 382; GST (N, cleaved yes); made in house; host or cells: E. coli BL21
# T1 sequence (P08050 255-382): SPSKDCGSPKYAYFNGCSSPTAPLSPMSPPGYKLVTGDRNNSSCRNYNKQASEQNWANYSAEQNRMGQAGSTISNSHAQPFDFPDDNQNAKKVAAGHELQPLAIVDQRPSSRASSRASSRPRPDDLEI
# Method: Efficacy of the interaction of each alpha CT1 variant with Cx43 CT or Cx43 CT-KK/QQ was tested using surface plasmon resonance (SPR) as described previously 20. In brief, SPR experiments were performed using a Biacore T200 (GE Healthcare). Equal amounts (response units/RU) of biotin-alpha CT1 variants were immobilized on each flow cell of a streptavidin-coated sensor chip (Biacore Inc) using immobilization buffer (in mM: 10 HEPES, 1 EDTA, 100 NaCl, 0.005% Tween-20) at pH 7.4. Measurements with wild-type (wt) Cx43 CT and mutant Cx43 CT-KK/QQ analytes were done in running buffer (in mM: 10 HEPES, 100 NaCl, pH 7.4) at a flow rate of 30 μl/min. Binding of analytes were verified at different concentrations, in random order (injection volume 120 μl). Interacting proteins were then unbound by injection of […] regeneration buffer (50 mM NaOH and 1 M NaCl) at a flow rate of 10 μl/min. Background levels were obtained from a reference cell containing a biotin-control peptide in which the reversed sequence of the last 9 amino acids of Cx43 was fused to biotin-antennapedia. The RU values obtained with biotin-control peptide were subtracted from the RU values obtained with the different biotin-alphaCT1 variants (wild-type or mutant) to generate the different response curves.
# [2] = target: T2, PKC-ε phosphorylation of Cx43-CT substrate at Ser368 (Rattus norvegicus, UniProt P08050); details: purified PKC enzyme and Cx43 CT substrate; cited from earlier work
# T2 construct: substrate (Cx43-CT: amino acids 255 to 382); GST (N); made in house; host or cells: E. coli BL21 (Cx43 CT); PKC-ε purchased (Life, 37717L)
# T2 sequence (P08050 255-382): as above
# [3] = aqueous solutions; cited from earlier work
# cornea = details: rat, in vivo; cited from earlier work
# [4] = test system: ARPE19 cell (immortalized human RPE cells) monolayers; details: pre-treatment, cited from earlier work
# silicone implants = details: days 1, 2, 3, 14, and 28; cited from earlier work
# [5] = test system: U87 MG glioblastoma cells; details: cited from earlier work
# porcine kidney = details: 100 μm in Belzer's solution, on ice 24 h; cited from earlier work
# heart allograft = details: 100 μM in UW solution, cited from earlier work
# [6] = test system: choroidal neovascularization; details: mouse, in vivo; cited from earlier work
# Cx43-HeLa = type: cell-based
# Method: The first tests of JM1 and JM2 were performed and the experiments centered on the basic cell biology of the peptides.
# silicone implant = assay: Silicone implants coated with JM2; type: in vivo, rat; details: 180 micomolar in 25% pluronic gel
# Method: 25% pluronic F127 gel (Sigma-Aldrich, St. Louis, MO 63103), which is liquid at 4° C., but gels at 37° C., was used as a delivery vehicle for JM2 peptide. Pluronic gel has mild surfactant properties that aid in peptide dispersion. The JM2 peptide was reconstituted in IX PBS containing the 25% pluronic gel to a final concentration of 180 micomolar.
# Animals were anesthetized with 2.75% isoflurane balance oxygen gas. After achievement of general anesthesia, the surgical site consisting of the animal's upper back was prepped by clipping fur down to skin and applying betadine scrub solution in triplicate. Sterile towels were draped to define the surgical field. PWAS Silicone sensors (5 mm diameter) were autoclave sterilized and warmed to 37° C. prior to implantation. For the treatment group, implants were dipped twice in JM2 pluronic solution prior to implantation. For the vehicle control group, the implants were dipped in saline only. This coating procedure produced an even coating of the implant. A muscle pocket was created under the latissimus dorsi muscle and implants were inserted. 50 μL of the corresponding solution was also injected into the muscle pocket prior to closure. The muscles were reapproximated with 4-0 Prolene (Ethicon Inc, Somerville, NJ 08876) and the skin closed with 4-0 Prolene and skin staples. […]
sequence,measurement,setting,value
RQPKIWFPNRRKPWKK RPRPAALAI (RQPKIWFPNRRKPWKKRPRPAALAI) [M1 AALAI],SPR binding to Cx43 CT,[1],loss of Cx43 CT binding competence
RQPKIWFPNRRKPWKKRPRPDDLAI [M3 DDLAI],SPR binding to Cx43 CT,[1],abrogated peptide interaction with Cx43 CT
RQPKIWFPNRRKPWKKRPRPDDLEI [alpha CT1],S368 phosphorylation in vitro,[2],promoted S368 phosphorylation in vitro in a dose-dependent manner
same,period of slow release of detectable levels of peptide,[3],at least 7 days
same,corneal closure and regeneration,cornea,faster closure and more complete corneal regeneration than control corneas
same,VEGF-induced deterioration of TER,[4],prevent VEGF-induced deterioration of TER
same,VEGF-induced deterioration of TER,[4]; listed as ACTI,blocked by pre-treating the cells with the ACTI peptide
same,wound-healing and foreign body responses,silicone implants,"attenuating neutrophil infiltration, increasing vascularity of the capsule tissue, reducing type I collagen deposition around the implant, and reducing the continued presence of contractile myofibroblasts"
same,aggregation,[5],higher degree of aggregation
same,Cx43 staining,porcine kidney,Punctate Cx43 staining in the membrane (gap junctions) were preserved
same,nitrotyrosine staining,porcine kidney,no changes in nitrotyrosine staining in the presence of ACT1 peptide
same,Evan's Blue sequestration into the transplanted heart,"heart allograft; 6 h at 4° C., 30 mins post reperfusion",significantly reduces Evan's Blue sequestration into the transplanted heart
same,"graft injury, serum cardiac troponin I, neutrophils",heart allograft; 6 hrs at 4° C.,"significantly reduced cardiac injury, reduced serum cardiac troponin I and significantly reduced neutrophils"
same,CNV injury spread and retinal function (ERG),[6],reduced CNV injury spread and improved retinal function
VFFKGVKDRVKGRSD [JM2],toxicity (cell death),Cx43-HeLa,no obvious toxicity
same,confluence,Cx43-HeLa; 24 hours,more confluent than control cells
same,"healing, capsule formation, scarring and fibrosis",silicone implant,"improved healing and decreased capsule formation, scarring and fibrosis"
same,inflammation and skeletal muscle necrosis,silicone implant,decreased inflammation and reduced skeletal muscle necrosis
